pIC50: −log10 of the molar value.

In test [1] the target is T1, human cloned dopamine D4.2 receptors (Homo sapiens, UniProt P21917, DEL265-296).
T1 construct: expressed in transfected cells; host or cells: CHO cells
T1 sequence (P21917 with tags, fused parts or gaps DEL265-296): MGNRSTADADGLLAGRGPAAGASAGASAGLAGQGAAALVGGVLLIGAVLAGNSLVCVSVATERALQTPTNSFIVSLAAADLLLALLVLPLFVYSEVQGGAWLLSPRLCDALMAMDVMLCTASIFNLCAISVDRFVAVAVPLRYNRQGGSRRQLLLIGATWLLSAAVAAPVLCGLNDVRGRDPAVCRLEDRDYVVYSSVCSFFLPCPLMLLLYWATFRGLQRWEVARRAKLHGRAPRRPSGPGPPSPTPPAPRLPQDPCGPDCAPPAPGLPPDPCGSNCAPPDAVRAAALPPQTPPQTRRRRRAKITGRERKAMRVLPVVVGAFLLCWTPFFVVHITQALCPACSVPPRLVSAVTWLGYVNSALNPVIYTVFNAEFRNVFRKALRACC
Briefly: Inhibition of the binding of 3H-YM-09151-2 to human dopamine D4 receptors. As to conditions: human cloned dopamine D4.2 receptors in CHO-cells; for inhibition at 0.05 µM: at 50 nM. Here is the method:
The compounds of the invention have also been tested for their affinity to dopamine D4 receptors in the following test.
Inhibition of the Binding of ^3H-YM-09151-2 to Human Dopamine D4 Receptors
By this method the inhibition by drugs of the binding of [^3H]YM-09151-2 (0.06 nM) to membranes of human cloned dopamine D4.2 receptors expressed in CHO-cells is determined in vitro. Method modified from NEN Life Science Products, Inc., technical data certificate PC2533-10/96.

Test [2] has as its target T2, cloned human 5-HT1A receptors (Homo sapiens, UniProt P08908).
T2 construct: expressed in transfected cells; host or cells: HeLa cells (HA7)
T2 sequence (P08908 1-422): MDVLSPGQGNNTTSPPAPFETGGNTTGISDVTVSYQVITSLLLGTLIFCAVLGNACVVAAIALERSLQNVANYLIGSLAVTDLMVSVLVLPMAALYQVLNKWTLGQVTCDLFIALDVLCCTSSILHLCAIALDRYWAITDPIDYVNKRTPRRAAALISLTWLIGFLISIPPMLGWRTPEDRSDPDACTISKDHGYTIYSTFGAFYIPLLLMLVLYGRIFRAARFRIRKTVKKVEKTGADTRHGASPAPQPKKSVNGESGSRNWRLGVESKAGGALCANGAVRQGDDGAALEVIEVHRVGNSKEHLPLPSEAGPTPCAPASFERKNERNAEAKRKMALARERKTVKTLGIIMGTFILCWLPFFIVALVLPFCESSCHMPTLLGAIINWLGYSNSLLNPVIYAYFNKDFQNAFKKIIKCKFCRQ
Put plainly: Inhibition of 3H-5-CT binding to human 5-HT1A receptors. Particulars: cloned human 5-HT1A receptors in HeLa cells (HA7); for inhibition at 0.1 µM: at 100 nM. Here is the method: The affinity of the compounds of the invention to 5-HT1A receptors was determined by measuring the inhibition of binding of a radioactive ligand at 5-HT1A receptors as described in the following test:
Inhibition of ^3H-5-CT Binding to Human 5-HT1A Receptors
By this method the inhibition by drugs of the binding of the 5-HT1A agonist ^3H-5-carboxamido tryptamine (3H-5-CT) to cloned human 5-HT1A receptors stably expressed in transfected HeLa cells (HA7) (Fargin, A. et al, J. Biol. Chem., 1989, 264, 14848) is determined in vitro. The assay was performed as a modification of the method described by Harrington, M. A. et at, J. Pharmacol. Exp. Ther., 1994, 268, 1098. Human 5-HT1A receptors (40 μg of cell homogenate) were incubated for 15 minutes at 37° C. in 50 mM Tris buffer at pH 7.7 in the presence of ^3H-5-CT. Non-specific binding was determined by including 10 μM of metergoline. The reaction was terminated by rapid filtration through Unifilter GF/B filters on a Tomtec Cell Harvester. Filters were counted in a Packard Top Counter.

What is called pIC50 is −log10 of the IC50, conventionally taken in molar units. Regarding `COc1c(Cl)cccc1SCCCCN1CCN(c2cccc3c2OCCO3)CC1` [Compound 5ag, 1-[4-(3-Chloro-2-methoxy-phenylsulfanyl)-butyl]-4-(2,3-dihydro-henzo[1,4]dioxin-5-yl)-piperazine], the figures for the negative logarithm of the IC50 (pIC50) in test [1] and in test [2] were 8.51 and 8.13, respectively.

For the molecule `Fc1ccc(SCCCN2CCN(c3cccc4ccsc34)CC2)c(Cl)c1` [Compound 5ad, 1-Benzo[b]thiophen-7-yl-4-[3-(2-chloro-4-fluoro-phenylsulfanyl)-propyl]-piperazine], the pIC50 in test [1] is 8.18.

As usually defined, the inhibition is the drop in the measured response relative to a control, in per cent. In the case of `C=CCc1cccc(Cl)c1OCCN1CCN(c2cccc3c2OCCO3)CC1` [Compound 7ai, 1-[2-(2-Allyl-6-chloro-phenoxy)-ethyl]-4-(2,3-dihydro-benzo[1,4]dioxin-5-yl)-piperazine], in test [1], the inhibition at 0.05 µM turned out to be 82%. Also, the inhibition at 0.1 µM in test [2] came to 90%.

Take `Fc1cc(Cl)c(OCCCN2CCN(c3cccc4ccsc34)CC2)c(Cl)c1` [Compound 5au, 1-Benzo[b]thiophen-7-yl-4-[3-(2,6-dichloro-4-fluoro-phenoxy)-propyl]-piperazine]: the results for the pIC50 in test [1] and in test [2] were 8.12 and 8.19, respectively.

On to `Cc1cccc(C)c1OCCN1CCN(c2cccc3c2OCCO3)CC1` [Compound 7ab, 1-(2,3-Dihydro-benzo[1,4]dioxin-5-yl)-4-[2-(2,6-dimethyl-phenoxy)-ethyl]-piperazine], for which, in test [1], the inhibition at 0.05 µM is 91%. For the same molecule, the inhibition at 0.1 µM in test [2] came out at 86%.

Turning to `CC(C)c1ccccc1SCCCCN1CCN(c2cccc3c2OCCO3)CC1` [Compound 7bn, 1-(2,3-Dihydro-benzo[1,4]dioxin-5-yl)-4-[4-(2-isopropyl-phenylsulfanyl)-butyl]-piperazine], the inhibition at 0.05 µM in test [1] is 93%. In test [2], the inhibition at 0.1 µM is 93%.

In the case of `CCc1ccccc1SCCN1CCN(c2cccc3c2OCCO3)CC1` [Compound 7as, 1-(2,3-Dihydro-benzo[1,4]dioxin-5-yl)-4-[2-(2-ethyl-phenylsulfanyl)-ethyl]-piperazine], in test [1], the inhibition at 0.05 µM came to 93%. Moreover, in test [2], the inhibition at 0.1 µM was determined as 80%.

Take `Cc1cccc(C)c1SCCCCN1CCN(c2cccc3c2OCCO3)CC1` [Compound 7ac, 1-(2,3-Dihydro-benzo[1,4]dioxin-5-yl)-4-[4-(2,6-dimethyl-phenylsulfanyl)-butyl]-piperazine]: the inhibition at 0.05 µM in test [1] is 96%. Further, in test [2], the inhibition at 0.1 µM was found to be 96%.

Take `N#Cc1ccc(N2CCN(CCCOc3ccccc3Cl)CC2)c2c1OCCO2` [Compound 6c, 8-{4-[3-(2-Chloro-phenoxy)-propyl]-piperazin-1-yl}-2,3-dihydro-benzo[1,4]dioxine-5-carbonitrile]: the pIC50 in test [1] was 7.89; in test [2] it was 7.17.

As for `Brc1cc(Br)c(OCCCN2CCN(c3cccc4c3OCCO4)CC2)c(Br)c1` [Compound 5bq, 1-(2,3-Dihydro-benzof[1,4]dioxin-5-yl)-4-[3-(2,4,6-tribromo-phenoxy)-propyl]-piperazine], the pIC50 in test [1] was 8.62; in test [2], 8.92.

As to `N#Cc1ccc(OCCCCN2CCN(c3cccc4c3OCCO4)CC2)c(Cl)c1` [Compound 7bb, 3-Chloro-4-{4-[4-(2,3-dihydro-benzo[1,4]dioxin-5-yl)-piperazin-1-yl]-butoxy}-benzonitrile], the inhibition at 0.05 µM in test [1] was determined as 94%. For the same molecule, the inhibition at 0.1 µM in test [2] worked out at 101%.

For `Fc1ccccc1SCCN1CCN(c2cccc3c2OCCO3)CC1` [Compound 7aw, 1-(2,3-Dihydro-benzo[1,4]dioxin-5-yl)-4-[2-(2-fluoro-phenylsulfanyl)-ethyl]-piperazine], the inhibition at 0.05 µM in test [1] was determined as 92%. Further, the inhibition at 0.1 µM in test [2] came to 74%.

As to `Fc1ccc(OCCCCN2CCN(c3cccc4c3OCCO4)CC2)c(Br)c1` [Compound 5be, 1-[4-(2-Bromo-4-fluoro-phenoxy)-butyl]-4-(2,3-dihydro-benzo[1,4]dioxin-5-yl)-piperazine], the pIC50 in test [1] was 8.92; in test [2] it was 8.10.

Take `Clc1cccc(SCCCN2CCN(c3cccc4c3OCCO4)CC2)c1` [Compound 7az, 1-[3-(3-Chloro-phenylsulfanyl)-propyl]-4-(2,3-dihydro-benzo[1,4]dioxin-5-yl)-piperazine]: the inhibition at 0.05 µM in test [1] was found to be 92%. Also, the inhibition at 0.1 µM in test [2] was 100%.

`Fc1ccc(OCCCCN2CCN(c3cccc4ccsc34)CC2)c(Cl)c1` [Compound 5bc, 1-Benzo[b]thiophen-7-yl-4-[4-(2-chloro-4-fluoro-phenoxy)-butyl]-piperazine]: the pIC50 is 8.72 in test [1] and 7.28 in test [2].

Take `Cc1cccc(Cl)c1SCCCCN1CCN(c2cc(Cl)cc3c2OC(C)(C)C3)CC1` [Compound 5ax, 1-(5-Chloro-2,2-dimethyl-2,3-dihydro-benzofuran-7-yl)-4-[4-(2-chloro-6-methyl-phenylsulfanyl)-butyl]-piperazine]: the pIC50 in test [1] is 7.64. In test [2], the inhibition at 0.1 µM stood at 33%.

`Fc1ccc(OCCCCN2CCN(c3cccc4ccsc34)CC2)c(Br)c1` [Compound 5bf, 1-Benzo[b]thiophen-7-yl-4-[4-(2-bromo-4-fluoro-phenoxy)-butyl]-piperazine]: the pIC50 in test [1] is 8.51; in test [2], 7.46.

The molecule `Fc1cc(Br)cc(F)c1OCCCN1CCN(c2cccc3ccsc23)CC1` [Compound 5cj, 1-Benzo[b]thiophen-7-yl-4-[3-(4-bromo-2,6-difluoro-phenoxy)-propyl]-piperazine] had a pIC50 in test [1] of 7.23. Besides, the inhibition at 0.1 µM in test [2] is 93%.

For `Cc1cccc(Cl)c1SCCCCN1CCN(c2cccc3c2OCCO3)CC1` [Compound 5av, 1-[4-(2-Chloro-6-methyl-phenylsulfanyl)-butyl]-4-(2,3-dihydro-benzo[1,4]dioxin-5-yl)-piperazine], the values for the pIC50 in test [1] and in test [2] were 8.85 and 8.29, respectively.

On to `FC(F)(F)c1ccccc1SCCN1CCN(c2cccc3c2OCCO3)CC1` [Compound 7af, 1-(2,3-Dihydro-benzo[1,4]dioxin-5-yl)-4-[2-(2-trifluoromethyl-phenylsulfanyl)-ethyl]-piperazine], for which the inhibition at 0.05 µM in test [1] amounted to 91%. Further, the inhibition at 0.1 µM in test [2] was determined as 99%.

As for `Fc1cc(Br)c(OCCCN2CCN(c3cccc4c3OCCO4)CC2)c(Br)c1` [Compound 5aj, 1-[3-(2,6-Dibromo-4-fluoro-phenoxy)-propyl]-4-(2,3-dihydro-benzo[1,4]dioxin-5-yl)-piperazine], the negative logarithm of the IC50 (pIC50) was 7.89 in test [1] and 8.47 in test [2].

As to `Fc1ccc(SCCCN2CCN(c3cccc4c3OCCO4)CC2)c(Cl)c1` [Compound 5ac, 1-[3-(2-Chloro-4-fluoro-phenylsulfanyl)-propyl]-4-(2,3-dihydro-benzo[1,4]dioxin-5-yl)-piperazine], the figures for the negative-log IC50 (pIC50) in test [1] and in test [2] were 8.85 and 8.62, respectively.

Consider `Cc1cccc(SCCCN2CCN(c3cccc4c3OCCO4)CC2)c1` [Compound 7aq, 1-(2,3-Dihydro-benzo[1,4]dioxin-5-yl)-4-(3-m-tolylsulfanyl-propyl)-piperazine], for which the inhibition at 0.05 µM in test [1] came to 82%. Moreover, the inhibition at 0.1 µM in test [2] was 101%.

In test [1], `Fc1ccc(SCCCN2CCN(c3cccc4ccsc34)CC2)c(Cl)c1` [Compound 5ai, 1-Benzo[b]thiophen-7-yl-4-[3-(2-chloro-4-fluoro-phenylsulfanyl)-propyl]-piperazine] showed a pIC50 of 8.54.

In test [1], `Fc1ccc(SCCCN2CCN(c3cccc4ccsc34)CC2)c(Cl)c1` [Compound 2e, 1-Benzo[b]thiophen-7-yl-4-[3-(2-chloro-4-fluoro-phenylsulfanyl)-propyl]-piperazine] had a pIC50 of 8.27.

The values above are taken from patent US20030050306A1, “Novel heteroaryl derivatives, their preparation and use” (H. Lundbeck A/S, priority 1999, published 2003).
